Results from US10206394B2, “Herbicidal compounds” (Syngenta Participations AG, priority 2014, dated 2019).
Like-named read-outs stand apart in the source and are kept apart here.

Assays:
Assay in all cases: Glasshouse assay for herbicidal activity (pre- and post-emergence), percentage phytotoxicity
Assay type in all cases: in vivo
[1] = tested on: Alopecurus myosuroides (ALOMY); conditions: Alopecurus myosuroides, rate 250 g/ha
In short: (§1)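 Percent injury was estimated by eye on a scale where 0% means no damage and 100% complete damage. Ratings came 15 DAA post-emergence and 20 DAA pre-emergence, with plants held under 16 h light and 65% humidity at 24/18 °C or 20/16 °C day/night.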

[2] = tested on: Echinochloa crus-galli (ECHCG); conditions: Echinochloa crus-galli, rate 250 g/ha
In short: as §1

Avena fatua (AVEFA) = conditions: Avena fatua, rate 250 g/ha
In short: as §1

Lolium perenne (LOLPE) = conditions: Lolium perenne, rate 250 g/ha
In short: as §1

[3] = post-emergence, 360 h, POST-emergence, visual score 15 DAA (100%=total damage, 0%=no damage), read-out: Post-emergence herbicidal activity (percentage phytotoxicity) ALOMY POST
[4] = pre-emergence, 480 h, PRE-emergence, visual score 20 DAA (100%=total damage, 0%=no damage), read-out: Pre-emergence herbicidal activity (percentage phytotoxicity) ALOMY PRE
[5] = post-emergence, 360 h, POST-emergence, visual score 15 DAA (100%=total damage, 0%=no damage), read-out: Post-emergence herbicidal activity (percentage phytotoxicity) ECHCG POST
[6] = pre-emergence, 480 h, PRE-emergence, visual score 20 DAA (100%=total damage, 0%=no damage), read-out: Pre-emergence herbicidal activity (percentage phytotoxicity) ECHCG PRE
[7] = post-emergence, 360 h, POST-emergence, visual score 15 DAA (100%=total damage, 0%=no damage), read-out: Post-emergence herbicidal activity (percentage phytotoxicity) AVEFA POST
[8] = pre-emergence, 480 h, PRE-emergence, visual score 20 DAA (100%=total damage, 0%=no damage), read-out: Pre-emergence herbicidal activity (percentage phytotoxicity) AVEFA PRE
[9] = post-emergence, 360 h, POST-emergence, visual score 15 DAA (100%=total damage, 0%=no damage), read-out: Post-emergence herbicidal activity (percentage phytotoxicity) LOLPE POST
[10] = pre-emergence, 480 h, PRE-emergence, visual score 20 DAA (100%=total damage, 0%=no damage), read-out: Pre-emergence herbicidal activity (percentage phytotoxicity) LOLPE PRE

Compound | pest or weed control at 250 g/ha [1, 3] [%] | pest or weed control at 250 g/ha [1, 4] [%] | pest or weed control at 250 g/ha [2, 5] [%] | pest or weed control at 250 g/ha [2, 6] [%] | pest or weed control at 250 g/ha (Avena fatua (AVEFA); [7]) [%] | pest or weed control at 250 g/ha (Avena fatua (AVEFA); [8]) [%] | pest or weed control at 250 g/ha (Lolium perenne (LOLPE); [9]) [%] | pest or weed control at 250 g/ha (Lolium perenne (LOLPE); [10]) [%]
CCc1cc(OCC(F)(F)F)cc(C)c1C1C(=O)CC(CC(=O)NC(C)(C)C)C1=O (centres unmarked) [Compound B165] | 100 | 100 | 100 | 100 | 100 | 100 | 100 | 100
C#CCNC(=O)CC1CC(=O)C(c2c(C)cc(OCC(F)(F)F)cc2CC)C1=O (centres unmarked) [Compound B166] | 100 | 100 | 100 | 100 | 100 | 100 | 100 | 100
CCc1cc(OCC(F)(F)F)cc(C)c1C1C(=O)CC(CC(N)=O)C1=O (centres unmarked) [Compound B167] | 100 | 100 | 100 | 100 | 100 | 90 | 90 | 100
CC#Cc1cc(C)c(C2C(=O)CC(CC(N)=O)C2=O)c(C)c1 (centres unmarked) [Compound B168] | 100 | 100 | 100 | 100 | 100 | 100 | 100 | 100
CCc1cc(C)cc(C)c1C1C(=O)CC(CC(=O)N2CCOCC2)C1=O (centres unmarked) [Compound B169] | 100 | 100 | 100 | 100 | 100 | 100 | 100 | 100
CCc1cc(C)cc(C)c1C1C(=O)CC(CC(=O)NC(C)(C)C)C1=O (centres unmarked) [Compound B170] | 100 | 100 | 100 | 100 | 90 | 90 | 100 | 100
CCc1cc(C)cc(C)c1C1C(=O)CC(CC(N)=O)C1=O (centres unmarked) [Compound B171] | 100 | 100 | 100 | 100 | 100 | 100 | 90 | 100
C/C=C/c1cc(C)c(C2C(=O)CC(CC(=O)N3CCOCC3)C2=O)c(C)c1 (centres unmarked) [Compound B172] | 90 | 80 | 100 | 100 | 90 | 80 | 90 | 100
C/C=C/c1cc(C)c(C2C(=O)CC(CC(=O)NC(C)(C)C)C2=O)c(C)c1 (centres unmarked) [Compound B173] | 90 | 90 | 90 | 90 | 80 | 60 | 80 | 90
C#CCNC(=O)CC1CC(=O)C(c2c(C)cc(/C=C/C)cc2C)C1=O (centres unmarked) [Compound B174] | 100 | 100 | 100 | 90 | 90 | 70 | 90 | 100
C/C=C/c1cc(C)c(C2C(=O)CC(CC(N)=O)C2=O)c(C)c1 (centres unmarked) [Compound B175] | 90 | 100 | 90 | 100 | 100 | 90 | 80 | 100
Cc1cc(Br)cc(C)c1C1C(=O)CC(CC(=O)NC/C=C/Cl)C1=O (centres unmarked) [Compound B176] | 80 | 90 | 80 | 80 | 80 | 60 | 80 | 90
C/C=C/CNC(=O)CC1CC(=O)C(c2c(C)cc(Br)cc2C)C1=O (centres unmarked) [Compound B177] | 80 | 90 | 90 | 90 | 80 | 30 | 80 | 90
Cc1cc(-c2ncc(Cl)cc2F)cc(C)c1C1C(=O)CC(CC(=O)NCC(C)(C)C)C1=O (centres unmarked) [Compound B178] | 100 | 100 | 100 | 100 | 90 | 90 | 100 | 100
C=CC(C)NC(=O)CC1CC(=O)C(c2c(C)cc(C)cc2C)C1=O (centres unmarked) [Compound B179] | 90 | 90 | 100 | 100 | 80 | 70 | 90 | 100
COCC(C)(C)NC(=O)CC1CC(=O)C(c2c(C)cc(C)cc2C)C1=O (centres unmarked) [Compound B180] | 90 | 90 | 90 | 90 | 90 | 60 | 80 | 90
Cc1cc(-c2ncc(F)cc2F)cc(C)c1C1C(=O)CC(CC(=O)NCc2ccccc2)C1=O (centres unmarked) [Compound B181] | 100 | 70 | 100 | 100 | 100 | 70 | 100 | 100
CC#Cc1cc(C)c(C2C(=O)CC(CC(=O)NCc3cccc(Cl)c3)C2=O)c(C)c1 (centres unmarked) [Compound B182] | 100 | 100 | 100 | 100 | 100 | 90 | 100 | 100
CC#Cc1cc(C)c(C2C(=O)CC(CC(=O)NCc3cccc(F)c3)C2=O)c(C)c1 (centres unmarked) [Compound B183] | 100 | 100 | 100 | 100 | 100 | 90 | 90 | 100
CC#Cc1cc(C)c(C2C(=O)CC(CC(=O)NCc3ccc(OC)cc3)C2=O)c(C)c1 (centres unmarked) [Compound B184] | 90 | 90 | 100 | 100 | 90 | 90 | 90 | 100
CC#Cc1cc(C)c(C2C(=O)CC(CC(=O)NCc3ccccc3)C2=O)c(C)c1 (centres unmarked) [Compound B185] | 100 | 80 | 100 | 100 | 100 | 60 | 100 | 70
CC#Cc1cc(C)c(C2C(=O)CC(CC(=O)NCc3ccc(C#N)cc3)C2=O)c(C)c1 (centres unmarked) [Compound B186] | 90 | 90 | 100 | 100 | 90 | 100 | 90 | 90
